According to the NIST ThermoML archive (doi:10.1016/j.fluid.2018.12.005):
Where “and” joins values, the source holds several entries; their conditions need not be identical. Equal values may be shown once. Numbers after ± are expanded uncertainties.

Assays:
[1] = Liquid; for mass density: 298.15 K, 101.33 kPa, Vibrating tube method; for vapor or sublimation pressure: Closed cell (Static) method
[2] = refractive index (Na D-line) (dimensionless); conditions: 298.15 K; 101.33 kPa; Liquid; Standard Abbe refractometry

SMILES	mass density [1]	refractive index [2]	vapor or sublimation pressure ([1]; 283.15 K) [kPa]	vapor or sublimation pressure ([1]; 293.15 K) [kPa]	vapor or sublimation pressure ([1]; 303.15 K) [kPa]	vapor or sublimation pressure ([1]; 313.15 K) [kPa]	vapor or sublimation pressure ([1]; 323.16 K) [kPa]	vapor or sublimation pressure ([1]; 283.14 K) [kPa]	vapor or sublimation pressure ([1]; 283.16 K) [kPa]	vapor or sublimation pressure ([1]; 293.14 K) [kPa]	vapor or sublimation pressure ([1]; 303.12 K) [kPa]	vapor or sublimation pressure ([1]; 313.13 K) [kPa]	vapor or sublimation pressure ([1]; 313.2 K) [kPa]	vapor or sublimation pressure ([1]; 323.13 K) [kPa]	vapor or sublimation pressure ([1]; 323.17 K) [kPa]
CCCCCC [hexane]	655 ± 2 kg/m3	1.375 ± 0.002	–	–	–	–	–	–	–	–	–	–	–	–	–
FC(F)(F)C(F)(F)C(F)(F)C(F)(F)C(F)(F)C(F)(F)C(F)(F)C(F)(F)F [octadecafluorooctane]	1755 ± 2 kg/m3	1.268 ± 0.002	1.51 ± 0.2	2.72 ± 0.2	4.72 ± 0.2	7.86 ± 0.21	12.6 ± 0.21	–	–	–	–	–	–	–	–
FC(F)(F)C(F)(F)C(F)(F)C(F)(F)C(F)(F)C(F)(F)F [perfluorohexane]	1701 ± 7 kg/m3 and 1670 ± 2 kg/m3	1.251 ± 0.002 and 1.253 ± 0.002	–	23.4 ± 0.3	36.3 ± 0.3	–	–	14.6 ± 0.2	14.4 ± 0.2	23.5 ± 0.3	36.2 ± 0.3	54.1 ± 0.4	54.4 ± 0.4	78.8 ± 0.5	78.9 ± 0.4
